System: 171881-019-R-J1-PDC tumor spheroid viability
Assay: Anticancer human tumor 171881-019-R-J1-PDC patient-derived invasive breast carcinoma cell line growth inhibition [PI3K]
Details: spheroids with HUVEC and MSC; for IC50: curve of first compound; for viability, T/C: stronger effect = lower value
Text: Combinatorial screen of targeted agents with the PI3K inhibitors inavolisib, alpelisib, duvelisib, and copanlisib in multi-cell type tumor spheroids
A high-throughput screen of multi-cell type tumor spheroids was designed to identify active combinations of targeted small molecules and PI3K pathway inhibitors. Complex spheroids include a stromal component modeled by human endothelial cells (HUVEC) and fibroblasts modeled by human mesenchymal stem cells (MSCs). The concentration ranges selected for each drug and investigational agent were based upon clinically achievable concentrations if the clinical Cmax of the agent was known.
Compounds. The drugs and investigational agents: inavolisib (NSC800729), alpelisib (NSC765974), duvelisib (NSC772469), copanlisib (NSC816437), ipatasertib (NSC767898), afuresertib (NSC778305), talazoparib (NSC767125), sapanisertib (NSC764658), selumetinib (NSC741078), tovorafenib (DAY101, NSC766906), vemurafenib (NSC761431), ravoxertinib (NSC781343), sotorasib (NSC818433), MRTX1133 (NSC 836407), abemaciclib (NSC 768073), palbociclib (NSC758247), venetoclax (NSC 766270), SY5609 (NSC837396), enzalutamide (NSC755605), and darolutamide (NSC825331), were obtained from the National Cancer Institute (NCI) Developmental Therapeutics Program Chemical Repository. The FDA-approved anticancer drug set is available from the NCI Developmental Therapeutics Program. […] The stock solutions were prepared in dimethyl sulfoxide (DMSO, Sigma-Aldrich, St. Louis, MO, cat. D2650) at 800-fold the tested concentration and stored at -70 degrees C prior to their use. All drugs and investigational agents were tested over a range starting from a high concentration at or near the clinical Cmax and decreasing in half-log increments. If the clinical Cmax for an agent had not been determined, the highest concentration tested was 10 microM.
Cell Culture. All cells were maintained in an incubator at 37 degrees C and 5% CO2 with 95% humidity. The PDC lines were cultured according to standard operating procedures established by the NCI PDMR (https://pdmr.cancer.gov/sops/default.htm). All PDCs were thawed and cultured in Matrigel-coated flasks prepared with a working solution of 1X Ham's F-12 nutrient mix, without supplementation (Invitrogen, Waltham, MA, cat. 11765054), 100 U/mL penicillin-streptomycin (Invitrogen, cat. 15140122), and 2.5% Matrigel (Corning Inc., Corning, NY, cat. 354248) for the first three passages. The 354836-022-R-J1-PDC, 475296-252-R-J1-PDC, and 997726-040-R-J2-PDC lines were cultured in 6A media, which includes advanced DMEM/F-12 (Thermo Fisher Scientific, cat. 12634028), 10 mM HEPES (Thermo Fisher Scientific, cat. 15630080), 1X GlutaMAX supplement (Thermo Fisher Scientific, cat. 35050061), 0.1 mg/mL primocin (InvivoGen, San Diego, CA, cat. ant-pm-2), 10% defined fetal bovine serum, heat inactivated (HyClone Laboratories Inc., Logan, UT, cat. SH30070.03HI), 50% L-WRN conditioned media (ATCC, cat. CRL-3276), 1.25 mM N-Acetyl-L-cysteine (Sigma-Aldrich, cat. A9165), 10 mM nicotinamide (Sigma-Aldrich, cat. N0636), 1X B-27 supplement (Thermo Fisher Scientific, cat. 17504044), 1X N-2 supplement (Thermo Fisher Scientific, cat. 17502048), and 10 microM Y-27632 dihydrochloride (Tocris Bioscience, Bristol, United Kingdom, cat. 1254). The 624824-186-R-J2-PDC line was cultured in 6C/Colon 1B media, which includes all 6A media components plus 50 ng/mL human EGF recombinant protein (Thermo Fisher Scientific, cat. PHG0311). […]
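Further: spheroids exposed to compound for 7 days before viability read.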
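Wherever viability, T/C is given: 100% = DMSO vehicle-treated spheroids.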

`CC(C)n1nc(-c2ccc3oc(N)nc3c2)c2c(N)ncnc21` + Cc1nc(NC(=O)N2CCCC2C(N)=O)sc1-c1ccnc(C(C)(C)C(F)(F)F)c1 showed an IC50 (second compound 0.0316 µM) of 6.6 nM, an IC50 (second compound 0.1 µM) of 4.2 nM and an IC50 (second compound 0.316 µM) of 0.378 nM. The IC50 (second compound 1 µM) was < 0.316 nM, the IC50 (second compound 3.16 µM) was < 0.316 nM and the IC50 (second compound 10 µM) was < 0.316 nM. The viability, T/C (second compound 0.0316 µM, first compound 0.000316 µM) was 93.8%, the viability, T/C (second compound 0.0316 µM, first compound 0.001 µM) was 78% and the viability, T/C (second compound 0.0316 µM, first compound 0.00316 µM) was 63.1%. The viability, T/C (second compound 0.0316 µM, first compound 0.01 µM) was 46.8%, the viability, T/C (second compound 0.0316 µM, first compound 0.0316 µM) was 16.1% and the viability, T/C (second compound 0.0316 µM, first compound 0.1 µM) was 3.37%. For the same compound, the viability, T/C (second compound 0.1 µM, first compound 0.000316 µM) was 79.6%, the viability, T/C (second compound 0.1 µM, first compound 0.001 µM) was 74.2% and the viability, T/C (second compound 0.1 µM, first compound 0.00316 µM) was 52.7%. For the same compound, the viability, T/C (second compound 0.1 µM, first compound 0.01 µM) was 35.6%, the viability, T/C (second compound 0.1 µM, first compound 0.0316 µM) was 13.1% and the viability, T/C (second compound 0.1 µM, first compound 0.1 µM) was 4.36%. For the same compound, the viability, T/C (second compound 0.316 µM, first compound 0.000316 µM) was 52%, the viability, T/C (second compound 0.316 µM, first compound 0.001 µM) was 44% and the viability, T/C (second compound 0.316 µM, first compound 0.00316 µM) was 38%. For the same compound, the viability, T/C (second compound 0.316 µM, first compound 0.01 µM) was 22.4%, the viability, T/C (second compound 0.316 µM, first compound 0.0316 µM) was 8.1% and the viability, T/C (second compound 0.316 µM, first compound 0.1 µM) was 2.79%. For the same compound, the viability, T/C (second compound 1 µM, first compound 0.000316 µM) was 31.4%, the viability, T/C (second compound 1 µM, first compound 0.001 µM) was 26.7% and the viability, T/C (second compound 1 µM, first compound 0.00316 µM) was 18.5%. It also gave a viability, T/C (second compound 1 µM, first compound 0.01 µM) of 10.9%, a viability, T/C (second compound 1 µM, first compound 0.0316 µM) of 4.74% and a viability, T/C (second compound 1 µM, first compound 0.1 µM) of 2.58%. It also gave a viability, T/C (second compound 3.16 µM, first compound 0.000316 µM) of 11.9%, a viability, T/C (second compound 3.16 µM, first compound 0.001 µM) of 11.9% and a viability, T/C (second compound 3.16 µM, first compound 0.00316 µM) of 8.19%. It also gave a viability, T/C (second compound 3.16 µM, first compound 0.01 µM) of 5.31%, a viability, T/C (second compound 3.16 µM, first compound 0.0316 µM) of 3.23% and a viability, T/C (second compound 3.16 µM, first compound 0.1 µM) of 2.15%. It also gave a viability, T/C (second compound 10 µM, first compound 0.000316 µM) of 3.18%, a viability, T/C (second compound 10 µM, first compound 0.001 µM) of 3.44% and a viability, T/C (second compound 10 µM, first compound 0.00316 µM) of 2.64%. The viability, T/C (second compound 10 µM, first compound 0.01 µM) was 2.7%, the viability, T/C (second compound 10 µM, first compound 0.0316 µM) was 2.05% and the viability, T/C (second compound 10 µM, first compound 0.1 µM) was 1.46%.
In the case of `CC1(C)CCC(CN2CCN(c3ccc(C(=O)NS(=O)(=O)c4ccc(NCC5CCOCC5)c([N+](=O)[O-])c4)c(Oc4cnc5[nH]ccc5c4)c3)CC2)=C(c2ccc(Cl)cc2)C1`, the viability, T/C (compound 0.0316 µM) is reported as 90.2% [middle of 4 runs], the viability, T/C (compound 0.1 µM) is reported as 87.8% [middle of 4 runs] and the viability, T/C (compound 1 µM) is reported as 86.9% [middle of 4 runs]. For the same compound, the viability, T/C (compound 3.16 µM) was 63.4% [middle of 4 runs].

Reference: PubChem BioAssay AID1963986 (Molecular Pharmacology Branch, DTP, NCI, 2024)
